pEC50: −log10 of the molar value.
Target: T1, mAChR M1 (UniProt P08482)
T1 sequence (P08482 1-460): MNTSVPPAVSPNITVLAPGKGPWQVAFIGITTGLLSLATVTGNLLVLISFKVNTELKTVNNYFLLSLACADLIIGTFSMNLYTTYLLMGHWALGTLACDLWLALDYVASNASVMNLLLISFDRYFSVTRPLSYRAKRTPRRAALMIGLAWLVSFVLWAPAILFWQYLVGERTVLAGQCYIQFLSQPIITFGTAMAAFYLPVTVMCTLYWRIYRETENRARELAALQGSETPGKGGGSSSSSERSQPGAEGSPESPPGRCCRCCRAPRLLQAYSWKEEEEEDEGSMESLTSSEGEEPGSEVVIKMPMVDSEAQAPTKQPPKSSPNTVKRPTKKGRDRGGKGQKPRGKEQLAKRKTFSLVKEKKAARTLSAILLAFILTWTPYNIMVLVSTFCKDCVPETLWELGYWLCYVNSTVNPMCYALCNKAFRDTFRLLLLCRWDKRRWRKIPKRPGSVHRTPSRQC
Experiment: mAChR M1 cell-based functional assay (calcium mobilization, PAM mode)
Details: for Emax: Percent of AChmax activity in presence of 30 μM test compound; for pEC50: potentiation of EC20 acetylcholine response, calcium flux in CHO-K1 cells expressing mAChR M1, >10 μM is estimated for low potency compounds without plateau
Source text: Chinese hamster ovary (CHO-K1) cells stably expressing rat (r)M1 were purchased from the American Type Culture Collection and cultured according to their indicated protocol. CHO cells stably expressing human (h)M2, hM3, and hM5 were described previously (Levey et al., 1991); hM1 and hM4 cDNAs were purchased from Missouri S&T cDNA Resource; rM4 cDNA was provided by T. I. Bonner (National Institutes of Health, Bethesda, Md.). rM2 and rM3 were cloned from a rat brain cDNA library and sequence verified. hM1, rM2, rM3, hM4, and rM4 cDNAs were used to stably transfect CHO-K1 cells purchased from the American Type Culture Collection using Lipofectamine-2000. To make stable rM2, hM2, hM4, and rM4 cell lines for use in calcium mobilization assays, these cells also were stably transfected with a chimeric G-protein (Gqi5) (provided by B.R. Conklin, University of California, San Francisco) using Lipofectamine 2000. rM1, hM1, rM3, hM3, rM5, and hM5 cells were grown in Ham's F-12 medium containing 10% heat-inactivated fetal bovine serum (FBS), 20 mM HEPES, and 50 μg/mL G418 sulfate. rM2-Gqi5, hM2-Gqi5, and hM4-Gqi5 cells were grown in the same medium also containing 500 μg/mL Hygromycin B. Stable rM4-Gqi5 cells were grown in DMEM containing 10% heat-inactivated FBS, 20 mM HEPES, 400 μg/mL G418 sulfate, and 500 μg/mL Hygromycin B.
For high throughput measurement of agonist-evoked increases in intracellular calcium, CHO-K1 cells stably expressing muscarinic receptors were plated in growth medium lacking G418 and hygromycin at 15,000 cells/20 μL/well in Greiner 384-well black-walled, tissue culture (TC)-treated, clear-bottom plates (VWR). Cells were incubated overnight at 37° C. and 5% CO2. The next day, cells were washed using an ELX 405 (BioTek) with four washes (80 μL) of assay buffer then aspirated to 20 μL. Next, 20 μL of 16 μM Fluo-4/acetoxymethyl ester (Invitrogen, Carlsbad, Calif.) prepared as a 2.3 mM stock in DMSO and mixed in a 1:1 ratio with 10% (w/v) Pluronic F-127 and diluted in assay buffer was added to the wells and the cell plates were incubated for 50 min at 37° C. and 5% CO2. Dye was removed by washing with the ELX 405 (four 80 μL washes of assay buffer) then aspirated to 20 μL. Compound master plates were formatted in an 11 point CRC format (1:3 dilutions) in 100% DMSO with a starting concentration of 10 mM using the BRAVO liquid handler (Agilent). Test compound CRCs were then transferred to daughter plates (240 nL) using the Echo acoustic plate reformatter (Labcyte, Sunnyvale, Calif.) and then diluted into assay buffer (40 μL) to a 2× stock using a Thermo Fisher Combi (Thermo Fisher Scientific, Waltham, Mass.).
Calcium flux was measured using the Functional Drug Screening System (FDSS) 6000 (Hamamatsu Corporation, Tokyo, Japan) as an increase in the fluorescent static ratio. Compounds were applied to cells (20 μL, 2×) using the automated system of the FDSS 6000 at 4 s into the 300 s protocol and the data were collected at 1 Hz. At 144 s into the 300 s protocol, 10 μL of an EC20 concentration of the muscarinic receptor agonist acetylcholine was added (5×), followed by the addition of 12 μL an EC80 concentration of acetylcholine at the 230 s time point (5×). Agonist activity was analyzed as a concentration-dependent increase in calcium mobilization upon compound addition. Positive allosteric modulator activity was analyzed as a concentration-dependent increase in the EC20 acetylcholine response. Antagonist activity was analyzed as a concentration-dependent decrease in the EC80 acetylcholine response. Concentration-response curves were generated using a four-parameter logistical equation in XLFit curve fitting software (IDBS, Bridgewater, N.J.) for Excel (Microsoft, Redmond, Wash.) or Prism (GraphPad Software, Inc., San Diego, Calif.).
The calcium mobilization assay was also used to determine “efficacy”. […]

Emax [%] | pEC50 | Structure (SMILES)
28 | < 5.00 | Cn1cc(-c2ccc(CN3C(=O)C(C)(N)c4ccccc43)cc2)cn1 (racemic) [Compound B15, 3-amino-3-methyl-1-(4-(1-methyl-1H-pyrazol-4-yl)benzyl)indolin-2-one]
44 | < 5.00 | CC(c1ccc(-c2cnn(C)c2)cc1F)N1C(=O)Cc2ccccc21 (stereo not shown) [Compound B24]
45 | < 5.00 | CCn1cc(-c2ccc(CN3C(=O)C(O)(C(F)(F)F)c4ccccc43)c(F)c2)cn1 (stereo not shown) [Compound B14]
55 | < 5.00 | CC1C(=O)N(Cc2ccc(-c3cnn(C)c3)cc2F)c2ccccc21 (stereo not shown) [Compound B9]
75 | 5.59 | Cn1cc(-c2ccc(CN3C(=O)Cc4ccccc43)c(F)c2)cn1 [Compound B1]
54 | < 5.00 | Cn1cc(-c2ccc(CN3C(=O)C(O)(C(F)(F)F)c4ccccc43)cn2)cn1 (stereo not shown) [Compound B17]
52 | 5.34 | Cn1cc(-c2ccc(CN3C(=O)C(O)(CF)c4ccccc43)c(F)c2)cn1 (stereo not shown) [Compound B4, 1-(2-fluoro-4-(1-methyl-1H-pyrazol-4-yl)benzyl)-3-(fluoromethyl)-3-hydroxyindolin-2-one]

The next lines start with the compound.

Structure (SMILES) | Emax [%] | pEC50
CN(C)C1(C)C(=O)N(Cc2ccc(-c3cnn(C)c3)cc2)c2ccccc21 (racemic) [Compound B7, 3-(dimethylamino)-3-methyl-1-(4-(1-methyl-1H-pyrazol-4-yl)benzyl)indolin-2-one] | 43 | 5.26
Cc1n[nH]cc1-c1ccc(CN2C(=O)C(O)(C(F)(F)F)c3ccccc32)c(F)c1 (stereo not shown) [Compound B5] | 37 | 5.31
Cn1cc(-c2ccc(CN3C(=O)C(O)(C(F)(F)F)c4ccccc43)c(Cl)c2)cn1 (stereo not shown) [Compound B10, 1-(2-chloro-4-(1-methyl-1H-pyrazol-4-yl)benzyl)-3-hydroxy-3-(trifluoromethyl)indolin-2-one] | 41 | < 5.00
Cn1cc(-c2ccc(CN3C(=O)C(O)(C(F)(F)F)c4ccccc43)c(F)c2)cn1 (stereo not shown) [Compound B6, 1-(2-fluoro-4-(1-methyl-1H-pyrazol-4-yl)benzyl)-3-hydroxy-3-(trifluoromethyl)indolin-2-one] | 60 | 5.30
Cn1cc(-c2ccc(CN3C(=O)C(O)(C(F)(F)F)c4cc(F)ccc43)c(F)c2)cn1 (stereo not shown) [Compound B3] | 35 | 5.41
Cn1cc(-c2ccc(CN3C(=O)C(O)(C(F)(F)F)c4ccccc43)c(F)c2)cn1 (stereo not shown) [Compound B19] | 54 | 5.44
Cn1cc(-c2ccc(CN3C(=O)C(O)(C(F)(F)F)c4ccccc43)c(F)c2)cn1 (single isomer, unassigned) [Compound B2, 1-(2-fluoro-4-(1-methyl-1H-pyrazol-4-yl)benzyl)-3-hydroxy-3-(trifluoromethyl)indolin-2-one] | 68 | 5.47
Cn1cc(-c2ccc(CN3C(=O)C(O)(C(F)(F)F)c4ccccc43)cc2)cn1 (stereo not shown) [Compound B12] | 63 | < 5.00
Cn1cc(-c2ccc(CN3C(=O)C(C)(O)c4ccccc43)c(F)c2)cn1 (stereo not shown) [Compound B8, 1-(2-fluoro-4-(1-methyl-1H-pyrazol-4-yl)benzyl)-3-hydroxy-3-methylindolin-2-one] | 52 | < 5.00
Cn1cc(-c2ccc(CN3C(=O)C(O)(C(F)(F)F)c4ccccc43)c(F)c2)cn1 (single isomer, unassigned) [Compound B18, 1-(2-fluoro-4-(1-methyl-1H-pyrazol-4-yl)benzyl)-3-hydroxy-3-(trifluoromethyl)indolin-2-one] |  | < 4.52
CC(C)n1cc(-c2ccc(CN3C(=O)C(O)(C(F)(F)F)c4ccccc43)c(F)c2)cn1 (stereo not shown) [Compound B13] | 38 | < 5.00
Cn1cc(-c2ccc(CN3C(=O)C(O)(C(F)(F)F)c4ccccc43)cc2F)cn1 (stereo not shown) [Compound B11] | 45 | < 5.00
Cn1cc(-c2ccc(CN3C(=O)C(O)(C(F)(F)F)c4ccccc43)cc2F)cn1 (stereo not shown) [Compound B21] | 38 | < 5.00
CCCn1cc(-c2ccc(CN3C(=O)C(O)(C(F)(F)F)c4ccccc43)c(F)c2)cn1 (stereo not shown) [Compound B16] | 31 | < 5.00
Cn1cc(-c2ccc(CN3C(=O)C(N)c4ccccc43)c(F)c2)cn1 (stereo not shown) [Compound B20] | 46 | 5.87

Reference: US9029563B2, “Substituted 1-benzylindolin-2-one analogs as positive allosteric modulators of muscarinic acetylcholine M1 receptors” (Vanderbilt University, priority 2012, dated 2015)
